SMILES strings stand for the structures. Some results are limits rather than exact numbers.

The values that follow come from patent publication US20250289789A1, “REVERSIBLE LYSINE COVALENT MODIFIERS OF CDK2 AND USES THEREOF” (Terremoto Biosciences, Inc., priority 2023, published 2025).

What all share (format): cell-based
The target of assay [1] is T1, CDK2-NanoLuc fusion with CCNE1 in 293T or 293 cells (Homo sapiens, UniProt P24941).
T1 construct: host or cells: 293T (ATCC CRL-3216) or 293 (ATCC CRL-1573)
Nature of the assay: NanoBRET Target Engagement (TE) Intracellular Kinase Assay, CDK2/CCNE1. To be noted: NanoBRET TE intracellular kinase assay, 2-hour incubation, read-out: NanoBRET-CDK2/E1 IC50. How it is done: (§1) Inhibitory effects of compounds were measured in NanoBRET TE Intracellular Kinase Assay. […] Cells were co-transfected with 1 μg/mL of CDK-NanoLuc Fusion Vector (Promega; NV2701 for CDK1, NV2781 for CDK2, NV2811 for CDK4, NV2841 for CDK6) and 1 μg/mL of the corresponding Cyclin Expression Vector (Promega; NV2601 for CCNB1, NV2641 for CCNE1, NV2621 for CCND1, NV2631 for CCND3) using FuGENE HD Transfection Reagent (Promega; E2311). […] 20 uL/well of 3× Intracellular TE Nano-Glo Substrate/Inhibitor (Promega; N2162) were added to 384-well plates and incubated for 3 minutes at room temperature. NanoBRET signals (donor emission wavelength at 450 nm, acceptor emission wavelength at 610 nm) were measured using Envision plate reader (PerkinElmer). NanoBRET ratio was calculated by: BRET Ratio=raw signal for acceptor/raw signal for donor. Dose response curve normalized to DMSO control was plotted using four-parameter logistic model for IC50 calculation.

Assay [2] addresses T2, CDK4-NanoLuc fusion with CCND1 in 293T or 293 cells (Homo sapiens, UniProt P11802).
T2 construct: host or cells: 293T (ATCC CRL-3216) or 293 (ATCC CRL-1573)
Kind of assay: NanoBRET Target Engagement (TE) Intracellular Kinase Assay, CDK4/CCND1. To be noted: NanoBRET TE intracellular kinase assay, 2-hour incubation, read-out: NanoBRET-CDK4/D1 IC50. How it is done: as §1
Background: Bioluminescence resonance energy transfer reports proximity on the nanometre scale.

In assay [3] the test system is Phospho-Rb Ser807/811 in OVCAR3 cells. Nature of the assay: OVCAR3 Phospho-Rb Ser807/811 HTRF assay. Conditions: Homo sapiens, OVCAR-3, 1 h, OVCAR3 cells, Phospho-Rb Ser807/811 HTRF, 1 hour incubation; read-out: pRb-OVCAR3 IC50. How it is done:
Cells were trypsinized and resuspended in 1 mM hydroxyurea (Sigma; H8627), 90% RPMI and 10% fetal bovine serum. […] Dose response curve normalized to DMSO control was plotted using four-parameter logistic model for IC50 calculation.
On the technique in general: TR-FRET usually uses a lanthanide donor and a delayed reading to cut background.

T2 sequence (P11802 whole entry, the tested form may be a part): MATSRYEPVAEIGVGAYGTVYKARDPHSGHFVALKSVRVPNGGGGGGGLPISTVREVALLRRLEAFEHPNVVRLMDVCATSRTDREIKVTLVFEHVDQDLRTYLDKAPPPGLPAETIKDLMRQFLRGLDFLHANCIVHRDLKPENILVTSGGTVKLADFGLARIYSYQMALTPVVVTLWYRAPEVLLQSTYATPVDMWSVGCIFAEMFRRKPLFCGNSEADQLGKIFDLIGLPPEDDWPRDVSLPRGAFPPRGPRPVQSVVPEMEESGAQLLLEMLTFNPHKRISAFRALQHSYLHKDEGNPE
T2 sequence (P24385 whole entry partner, the tested form may be a part): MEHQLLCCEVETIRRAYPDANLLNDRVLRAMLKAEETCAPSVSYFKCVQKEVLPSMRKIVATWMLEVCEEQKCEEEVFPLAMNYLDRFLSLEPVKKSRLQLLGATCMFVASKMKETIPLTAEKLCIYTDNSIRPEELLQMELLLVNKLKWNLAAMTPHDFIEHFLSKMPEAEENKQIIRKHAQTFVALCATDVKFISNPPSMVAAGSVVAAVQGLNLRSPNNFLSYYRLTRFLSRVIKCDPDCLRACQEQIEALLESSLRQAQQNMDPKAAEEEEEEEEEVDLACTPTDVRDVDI

With `COc1cc(O)c(C=O)c(OCC(=O)Nc2cc([C@H]3CC[C@@H](OC(=O)N[C@H](C)CC(F)F)C3)[nH]n2)c1` [Compound 119], the values for the IC50 in assay [1], in assay [2] and in assay [3] were 0.00231 µM, 7.86 µM and 0.0264 µM, respectively.
Regarding `COc1cc(O)c(C=O)c(OCC(=O)Nc2cc([C@H]3CC[C@@H](OC(=O)N[C@@H](C)CF)C3)[nH]n2)c1` [Compound 120], the figures for the IC50 in assay [1], in assay [2] and in assay [3] were 0.00264 µM, 2.97 µM and 0.0134 µM, respectively.
The corresponding values for `COc1cc(O)c(C=O)c(OCC(=O)Nc2cc([C@H]3CC[C@@H](OC(=O)N(C)CC(F)F)C3)[nH]n2)c1` [Compound 121] are 0.00199 µM, 2.44 µM and 0.0185 µM.
Regarding `COc1cc(O)c(C=O)c(OCC(=O)Nc2cc([C@H]3CC[C@@H](OC(=O)N4C[C@H](F)[C@@H]4C)C3)[nH]n2)c1` [Compound 122], the IC50 was found to be 0.00199 µM in assay [1], 1.31 µM in assay [2] and 0.0209 µM in assay [3].
For `COc1cc(O)c(C=O)c(OCC(=O)Nc2cc([C@H]3CC[C@@H](OC(=O)N4[C@H](C)C[C@@H]4C)C3)[nH]n2)c1` [Compound 123], the results for the IC50 in assay [1], in assay [2] and in assay [3] were 0.00262 µM, 2.57 µM and 0.027 µM, respectively.
The corresponding values for `COc1cc(O)c(C=O)c(OCC(=O)Nc2cc([C@H]3CC[C@@H](OC(=O)N4C[C@@H](F)[C@H](F)C4)C3)n[nH]2)c1` [Compound 124] are 0.00199 µM, 2.58 µM and 0.0377 µM.
In the same order, the values of `COc1cc(O)c(C=O)c(OCC(=O)Nc2cc([C@H]3CC[C@@H](OC(=O)N4C[C@H](F)C[C@@H]4C)C3)n[nH]2)c1` [Compound 125] are 0.00312 µM, 1.54 µM and 0.0534 µM.
The corresponding values for `COc1cc(O)c(C=O)c(OCC(=O)Nc2cc([C@H]3CC[C@@H](OC(=O)NCC#N)C3)[nH]n2)c1` [Compound 127] are 0.0259 µM, 8.53 µM and 0.0983 µM.
As to `COc1cc(O)c(C=O)c(OCC(=O)Nc2cc([C@H]3CC[C@@H](OC(=O)N4CC(F)(F)C4)C3)[nH]n2)c1` [Compound 129], the IC50 came out at 0.00196 µM in assay [1], 7.62 µM in assay [2] and 0.0445 µM in assay [3].
In the same order, the values of `COc1cc(O)c(C=O)c(O[C@H](C)C(=O)Nc2cc([C@H]3CC[C@@H](OC(=O)NC4(C)CC4)C3)[nH]n2)c1` [Compound 130, (1R,3S)-3-(3-((R)-2-(2-formyl-3-hydroxy-5-methoxyphenoxy)propanamido)-1H-pyrazol-5-yl)cyclopentyl (1-methylcyclopropyl)carbamate] are 0.00369 µM, 0.864 µM and 0.0249 µM.
Consider `COc1cc(O)c(C=O)c(OCC(=O)Nc2cc([C@H]3CC[C@@H](OC(=O)N4CCC[C@H](C#N)C4)C3)[nH]n2)c1` [Compound 131, (1R,3S)-3-{5-[2-(2-formyl-3-hydroxy-5-methoxyphenoxy)acetamido]-2H-pyrazol-3-yl}cyclopentyl (3S)-3-cyanopiperidine-1-carboxylate], for which the IC50 in assay [1] was determined as 0.00325 µM; in assay [2] it was 0.697 µM; in assay [3], 0.0125 µM.
As for `COc1cc(O)c(C=O)c(OCC(=O)Nc2cc([C@H]3CC[C@@H](OC(=O)N[C@@H]4C[C@@H]4F)C3)[nH]n2)c1` [Compound 133], the values for the IC50 in assay [1], in assay [2] and in assay [3] were 0.00442 µM, 2.8 µM and 0.0196 µM, respectively.
The corresponding values for `COc1cc(O)c(C=O)c(OCC(=O)Nc2cc([C@H]3CC[C@@H](OC(=O)N[C@@H](C)C(F)F)C3)[nH]n2)c1` [Compound 134] are 0.00326 µM, 3.8 µM and 0.0371 µM.
The corresponding values for `CCCONC(=O)O[C@@H]1CC[C@H](c2cc(NC(=O)COc3cc(OC)cc(O)c3C=O)n[nH]2)C1` [Compound 135] are 0.00341 µM, above 10 µM and 0.0927 µM.
In the same order, the values of `COc1cc(O)c(C=O)c(OCC(=O)Nc2cc([C@H]3CC[C@@H](OC(=O)NC4(CF)CC4)C3)[nH]n2)c1` [Compound 136] are 0.00222 µM, 1.42 µM and 0.0169 µM.
Take `COc1cc(O)c(C=O)c(OCC(=O)Nc2cc([C@H]3CC[C@@H](OC(=O)NCc4cnn(C)c4)C3)[nH]n2)c1` [Compound 137]: the IC50 in assay [1] was 0.0216 µM; in assay [2] it was above 10 µM; in assay [3] it was 0.295 µM.
`COc1cc(O)c(C=O)c(OCC(=O)Nc2cc([C@H]3CC[C@@H](OC(=O)N[C@H]4C[C@@H](C#N)C4)C3)[nH]n2)c1` [Compound 138]: the IC50 in assay [1] is 0.00471 µM; in assay [2] it was 5.86 µM; in assay [3], 0.0806 µM.
In the same order, the values of `Cc1cc(O)c(C=O)c(OCC(=O)Nc2cc([C@H]3CC[C@@H](OC(=O)NC4(C#N)CC4)C3)[nH]n2)c1` [Compound 139] are 0.0129 µM, 3.99 µM and 0.178 µM.
Take `COc1cc(O)c(C=O)c(OCC(=O)Nc2cc([C@H]3CC[C@@H](OC(=O)NC4(C(F)F)CC4)C3)[nH]n2)c1` [Compound 140, (1R,3S)-3-{5-[2-(2-formyl-3-hydroxy-5-methoxyphenoxy)acetamido]-2H-pyrazol-3-yl}cyclopentyl N-[1-(difluoromethyl)cyclopropyl]carbamate]: the IC50 in assay [1] is 0.00282 µM; in assay [2], 1.08 µM; in assay [3] it was 0.0161 µM.
The corresponding values for `CCc1cc(O)c(C=O)c(OCC(=O)Nc2cc([C@H]3CC[C@@H](OC(=O)NC4(C)CC4)C3)[nH]n2)c1` [Compound 141] are 0.00187 µM, 5.5 µM and 0.1 µM.
In the same order, the values of `COc1cc(O)c(C=O)c(OCC(=O)Nc2cc([C@H]3CC[C@@H](OC(=O)NCC(F)F)C3)[nH]n2)c1` [Compound 142] are 0.00376 µM, 7.02 µM and 0.0533 µM.
Turning to `COc1cc(O)c(C=O)c(OCC(=O)Nc2cc([C@H]3CC[C@@H](OC(=O)NC[C@H]4CCO4)C3)[nH]n2)c1` [Compound 143], the IC50 in assay [1] was 0.0131 µM; in assay [2] it was above 10 µM; in assay [3], 0.142 µM.
As to `C#CCN(CC)C(=O)O[C@@H]1CC[C@H](c2cc(NC(=O)COc3cc(OC)cc(O)c3C=O)n[nH]2)C1` [Compound 144], the IC50 in assay [1] was determined as 0.00236 µM; in assay [2] it was 2.34 µM; in assay [3], 0.029 µM.
The corresponding values for `Cc1cc(O)c(C=O)c(OCC(=O)Nc2cc([C@H]3CC[C@@H](OC(=O)NC4(C)CC4)C3)[nH]n2)c1` [Compound 145] are 0.00346 µM, 4.07 µM and 0.0643 µM.
The corresponding values for `COc1cc(O)c(C=O)c(OCC(=O)Nc2cc([C@H]3CC[C@@H](OC(=O)NC4(CC#N)CC4)C3)[nH]n2)c1` [Compound 146] are 0.00988 µM, 2.38 µM and 0.0409 µM.
The corresponding values for `CCN(CC#N)C(=O)O[C@@H]1CC[C@H](c2cc(NC(=O)COc3cc(OC)cc(O)c3C=O)n[nH]2)C1` [Compound 147] are 0.00285 µM, 2.26 µM and 0.0138 µM.
In the case of `COc1cc(O)c(C=O)c(OCC(=O)Nc2cc([C@H]3CC[C@@H](OC(=O)NC4(C#N)CCC4)C3)[nH]n2)c1` [Compound 148], the results for the IC50 in assay [1], in assay [2] and in assay [3] were 0.00697 µM, 4.25 µM and 0.113 µM, respectively.
In the same order, the values of `COc1cc(O)c(C=O)c(OCC(=O)Nc2cc([C@H]3CC[C@@H](OC(=O)NC4COC4)C3)[nH]n2)c1` [Compound 149] are 0.0202 µM, above 10 µM and 0.385 µM.
The corresponding values for `COc1cc(O)c(C=O)c(OCC(=O)Nc2cc([C@H]3CC[C@@H](OC(=O)N[C@H]4C[C@@H](C)C4)C3)[nH]n2)c1` [Compound 150] are 0.00227 µM, 3.89 µM and 0.148 µM.
In the same order, the values of `COc1cc(O)c(C=O)c(OCC(=O)Nc2cc([C@H]3CC[C@@H](OC(=O)N(C(C)C)C(C)C)C3)[nH]n2)c1` [Compound 151] are 0.00347 µM, 2.89 µM and 0.0361 µM.
In the case of `COc1cc(O)c(C=O)c(OCC(=O)Nc2cc([C@H]3CC[C@@H](OC(=O)N4CC[C@H](C#N)C4)C3)[nH]n2)c1` [Compound 152], the IC50 in assay [1] turned out to be 0.00762 µM; in assay [2] it was 6.99 µM; in assay [3] it was 0.03 µM.
As for `COc1cc(O)c(C=O)c(OCC(=O)Nc2cc([C@H]3CC[C@@H](OC(=O)N4CC(C#N)C4)C3)[nH]n2)c1` [Compound 153], the IC50 in assay [1] was 0.0131 µM; in assay [2] it was above 10 µM; in assay [3], 0.0497 µM.
